This test deals with L1210 leukemia ip in BDF1 mice, survival T/C. Put plainly: NCI In Vivo Anticancer Drug Screen. Data for tumor model L1210 Leukemia (intraperitoneal) in B6D2F1 (BDF1) mice. Particulars: endpoint: mean survival time, higher = longer survival. An outline of the steps: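 Antitumor effect is assessed in tumor-bearing animals. Survival in the compound arm is compared with a vehicle-dosed control arm and expressed as their quotient.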

The mark [1] stands for this setting: dose: 100.0 mg/kg/injection, schedule: Q01DX001 (ip), vehicle: saline with Tween-80.
Where [2] appears, read: dose: 100.0 mg/kg/injection, schedule: Q01DX009 (ip), vehicle: saline with Tween-80.
Setting [3] is: dose: 100.0 mg/kg/injection, schedule: Q04DX002 (ip), vehicle: saline with Tween-80.
[4] abbreviates: dose: 100.0 mg/kg/injection, schedule: Q04DX003 (ip), vehicle: saline with Tween-80.
Where [5] appears, read: dose: 200.0 mg/kg/injection, schedule: Q01DX001 (ip), vehicle: saline with Tween-80.
Where [6] appears, read: dose: 200.0 mg/kg/injection, schedule: Q01DX009 (ip), vehicle: saline with Tween-80.
Where [7] appears, read: dose: 200.0 mg/kg/injection, schedule: Q04DX002 (ip), vehicle: saline with Tween-80.
Setting [8] is: dose: 200.0 mg/kg/injection, schedule: Q04DX003 (ip), vehicle: saline with Tween-80.
The mark [9] stands for this setting: dose: 400.0 mg/kg/injection, schedule: Q01DX001 (ip), vehicle: saline with Tween-80.
[10] abbreviates: dose: 400.0 mg/kg/injection, schedule: Q01DX009 (ip), vehicle: saline with Tween-80.
Where [11] appears, read: dose: 400.0 mg/kg/injection, schedule: Q04DX002 (ip), vehicle: saline with Tween-80.
Setting [12] is: dose: 400.0 mg/kg/injection, schedule: Q04DX003 (ip), vehicle: saline with Tween-80.
The mark [13] stands for this setting: dose: 100.0 mg/kg/injection, schedule: Q04DX003 (ip), vehicle: Klucel (hydroxypropylcellulose) (HPC).
Setting [14] is: dose: 200.0 mg/kg/injection, schedule: Q04DX003 (ip), vehicle: Klucel (hydroxypropylcellulose) (HPC).
Setting [15] is: dose: 400.0 mg/kg/injection, schedule: Q04DX003 (ip), vehicle: Klucel (hydroxypropylcellulose) (HPC).
Where [16] appears, read: dose: 100.0 mg/kg/injection, schedule: Q01DX009 (ip), vehicle: Klucel (hydroxypropylcellulose) (HPC).
Setting [17] is: dose: 200.0 mg/kg/injection, schedule: Q01DX009 (ip), vehicle: Klucel (hydroxypropylcellulose) (HPC).
The mark [18] stands for this setting: dose: 400.0 mg/kg/injection, schedule: Q01DX009 (ip), vehicle: Klucel (hydroxypropylcellulose) (HPC).
[19] abbreviates: dose: 50.0 mg/kg/injection, schedule: Q01DX001 (ip), vehicle: saline.
Where [20] appears, read: dose: 100.0 mg/kg/injection, schedule: Q01DX001 (ip), vehicle: saline.
Where [21] appears, read: dose: 200.0 mg/kg/injection, schedule: Q01DX001 (ip), vehicle: saline.

Where “and” joins values, the source holds several entries; their conditions need not be identical. Identical values can stand only once. Inconclusive results and toxic doses are left out.

As to `COc1ccc(OC)c(NC(=O)c2ccc(Cl)cc2)c1`, the T/C by setting is: under setting [1], 101 % of control; under setting [2], 97 % of control; under setting [3], 104 % of control and 110 % of control; under setting [4], 94 % of control; under setting [5], 97 % of control; under setting [6], 95 % of control and 97 % of control. Further, the T/C runs as follows: under setting [7], 104 % of control and 92 % of control; under setting [8], 97 % of control; under setting [9], 95 % of control; under setting [10], 102 % of control and 124 % of control; under setting [11], 94 % of control and 108 % of control; under setting [12], 95 % of control.
Consider `NC(c1ccccc1)C1C(c2ccccc2)N1C1CCCCC1` (stereo not given), for which the T/C runs as follows: under setting [13], 95 % of control; under setting [14], 86 % of control; under setting [15], 98 % of control.
On to `CSc1ccc(NC(=O)Oc2ccc(C(=O)OCc3ccccc3)cc2)cc1`, for which the T/C under setting [1] is 100 % of control and 88 % of control; the T/C under setting [2] is 99 % of control and 87 % of control; the T/C under setting [3] is 97 % of control and 101 % of control; the T/C under setting [4] is 102 % of control; the T/C under setting [5] was 97 % of control; the T/C under setting [6] was 108 % of control and 89 % of control. Moreover, the T/C under setting [7] is 97 % of control and 87 % of control; the T/C under setting [8] is 103 % of control; the T/C under setting [9] is 100 % of control; the T/C under setting [10] was 99 % of control and 92 % of control; the T/C under setting [11] is 95 % of control and 97 % of control; the T/C under setting [12] was 103 % of control.
As to `OCCCC1CC2C=CC1C2` (stereo not given), the T/C by setting is: (dose: 75.0 mg/kg/injection, schedule: Q01DX001 (ip), vehicle: other) 102 % of control; (dose: 150.0 mg/kg/injection, schedule: Q01DX001 (ip), vehicle: other) 94 % of control.
With `CC(C)(N)CCC(C)(C)NCCCN`, the T/C reads like this: (dose: 100.0 mg/kg/injection, schedule: Q01DX009 (ip), vehicle: water) 95 % of control; (dose: 100.0 mg/kg/injection, schedule: Q04DX003 (ip), vehicle: water) 100 % of control; (dose: 200.0 mg/kg/injection, schedule: Q01DX009 (ip), vehicle: water) 98 % of control; (dose: 200.0 mg/kg/injection, schedule: Q04DX003 (ip), vehicle: water) 106 % of control; (dose: 400.0 mg/kg/injection, schedule: Q04DX003 (ip), vehicle: water) 97 % of control.
Turning to `O=C(CC(O)(C(F)(F)F)C(F)(F)F)c1ccc([N+](=O)[O-])cc1`, the T/C (dose: 50.0 mg/kg/injection, schedule: Q04DX003 (ip), vehicle: other) was 102 % of control; the T/C (dose: 100.0 mg/kg/injection, schedule: Q04DX003 (ip), vehicle: other) is 100 % of control; the T/C (dose: 200.0 mg/kg/injection, schedule: Q04DX003 (ip), vehicle: other) was 100 % of control; the T/C (dose: 400.0 mg/kg/injection, schedule: Q04DX003 (ip), vehicle: other) was 104 % of control.
In the case of `O=C1c2ccccc2C(=O)N1CNc1cccc(NCN2C(=O)c3ccccc3C2=O)n1`, the T/C reads like this: under setting [2], 92 % of control; under setting [6], 91 % of control; under setting [10], 93 % of control.
In the case of `C/C=C1\SC(=S)NC1=O`, the T/C by setting is: (dose: 20.0 mg/kg/injection, schedule: Q01DX001 (ip), vehicle: other) 100 % of control; (dose: 40.0 mg/kg/injection, schedule: Q01DX001 (ip), vehicle: other) 100 % of control; (dose: 80.0 mg/kg/injection, schedule: Q01DX001 (ip), vehicle: other) 101 % of control.
In the case of `COc1c(C)c(Br)c(OC)c2ccccc12`, the T/C by setting is: under setting [2], 89 % of control; under setting [6], 94 % of control; under setting [10], 94 % of control.
On to `O=NN(CCCl)C(=O)N[C@H]1CCCC[C@H]1O`, for which the T/C is, setting by setting: (dose: 12.0 mg/kg/injection, schedule: Q01DX001 (ip), vehicle: saline with Tween-80) 176 % of control; (dose: 18.0 mg/kg/injection, schedule: Q01DX001 (ip), vehicle: saline with Tween-80) 301 % of control; (dose: 26.0 mg/kg/injection, schedule: Q01DX001 (ip), vehicle: saline with Tween-80) 443 % of control; (dose: 40.0 mg/kg/injection, schedule: Q01DX001 (ip), vehicle: saline with Tween-80) 442 % of control; (dose: 60.0 mg/kg/injection, schedule: Q01DX001 (ip), vehicle: saline with Tween-80) 205 % of control.
As for `CCOC(=O)COc1c(C)cccc1Cl`, the T/C by setting is: under setting [3], 111 % of control; under setting [7], 114 % of control.
With `CC(C)(C)C1CCC(N=C(N)CCl)CC1` (stereo not given), the T/C is, setting by setting: (dose: 6.25 mg/kg/injection, schedule: Q01DX009 (ip), vehicle: Klucel (hydroxypropylcellulose) (HPC)) 98 % of control; (dose: 12.5 mg/kg/injection, schedule: Q01DX009 (ip), vehicle: Klucel (hydroxypropylcellulose) (HPC)) 102 % of control; (dose: 12.5 mg/kg/injection, schedule: Q04DX002 (ip), vehicle: Klucel (hydroxypropylcellulose) (HPC)) 103 % of control; (dose: 25.0 mg/kg/injection, schedule: Q01DX009 (ip), vehicle: Klucel (hydroxypropylcellulose) (HPC)) 98 % of control; (dose: 25.0 mg/kg/injection, schedule: Q04DX002 (ip), vehicle: Klucel (hydroxypropylcellulose) (HPC)) 100 % of control.
For `Cc1ccc(NC(=S)N2CCOCC2)cc1C`, the T/C was 94 % of control under setting [16], 100 % of control under setting [17] and 94 % of control under setting [18].
In the case of `N#CC(C#N)=Cc1ccc2ccc3cccc4ccc1c2c34`, the T/C is, setting by setting: under setting [13], 91 % of control; under setting [14], 93 % of control; under setting [15], 93 % of control.
As for `N#Cc1ccc(-n2cccc2)cc1`, the T/C is, setting by setting: (dose: 100.0 mg/kg/injection, schedule: Q01DX001 (ip), vehicle: steriod suspending solution) 100 % of control; (dose: 200.0 mg/kg/injection, schedule: Q01DX001 (ip), vehicle: steriod suspending solution) 100 % of control; (dose: 400.0 mg/kg/injection, schedule: Q01DX001 (ip), vehicle: steriod suspending solution) 101 % of control.
`CCCCCCCCCCCCOC(=O)NCCCl`: the T/C by setting is: under setting [1], 103 % of control; under setting [5], 102 % of control; under setting [9], 103 % of control.
Turning to `CCN(CC)CCCNc1cc(C)c(C)cc1[N+](=O)[O-]`, for the setting “dose: 100.0 mg/kg/injection, schedule: Q04DX003 (ip), vehicle: saline”, the T/C is 100 % of control.
Regarding `CSc1nc(N=[N+]=[N-])n(C)n1`, the T/C was 95 % of control under setting [3], 95 % of control under setting [7] and 92 % of control under setting [11].
Turning to `C[C@@H]1O[C@@H](O[C@H]2CC[C@]3(C=O)[C@H]4CC[C@]5(C)[C@@H](c6ccc(=O)oc6)CC[C@]5(O)[C@@H]4CC[C@]3(O)C2)[C@H](O)[C@H](O)[C@H]1O[C@@H]1O[C@H](CO)[C@@H](O)[C@H](O)[C@H]1O`, the T/C runs as follows: (dose: 5.0 mg/kg/injection, schedule: Q01DX001 (ip), vehicle: carboxymethylcellulose (CMC)) 100 % of control; (dose: 10.0 mg/kg/injection, schedule: Q01DX001 (ip), vehicle: carboxymethylcellulose (CMC)) 94 % of control.
Consider `O=C1C(=O)C(c2ccccc2)Oc2ccccc21` (stereo not given), for which the T/C under setting [19] is 89 % of control; the T/C under setting [20] is 101 % of control; the T/C under setting [21] is 98 % of control; the T/C (dose: 400.0 mg/kg/injection, schedule: Q01DX001 (ip), vehicle: saline) is 95 % of control.
Regarding `O=C(O)CCc1cnc2ccccc2n1`, the T/C runs as follows: under setting [16], 97 % of control; under setting [13], 106 % of control; under setting [17], 95 % of control; under setting [14], 95 % of control; under setting [18], 96 % of control; under setting [15], 92 % of control.
Turning to `COc1ccc(OC)c2c(=O)cc(C(=O)O)[nH]c12`, the T/C is 98 % of control under setting [19], 97 % of control under setting [20] and 95 % of control under setting [21].

The record behind these values is PubChem BioAssay AID248 (DTP/NCI, 2004).
